The test system of data set [1] is weeds. As to the kind of experiment: Post-emergence test, activity against weeds. It is filed as in vivo. On the procedure: (§1) • Solvent: 5 parts by weight of acetone • Emulsifier: 1 part by weight of alkylaryl polyglycol ether
(§2) To produce a suitable preparation of active compound, one part by weight of active compound is mixed with the stated amount of solvent, the stated amount of emulsifier is added and the concentrate is diluted with water to the desired concentration.
(§3) Test plants which have a height of 5-15 cm are sprayed with the preparation of active compound such that the particular amounts of active compound desired are applied per unit area. The concentration of the spray liquor is chosen so that the particular amounts of active compound desired are applied in 1000 l of water/ha.
(§4) After three weeks, the degree of damage to the plants is rated in % damage in comparison to the development of the untreated control.
(§5) The figures denote: • 0%=no effect (like untreated control) • 100%=total destruction

The test system of data set [2] is weeds. Description: Pre-emergence test, activity against weeds. It is filed as in vivo. On the procedure: as §1
(§6) To produce a suitable preparation of active compound, 1 part by weight of active compound is mixed with the stated amount of solvent, the stated amount of emulsifier is added and the concentrate is diluted with water to the desired concentration.
(§7) Seeds of the test plants are sown in normal soil. After about 24 hours, the soil is sprayed with the preparation of active compound such that the particular amount of active compound desired is applied per unit area. The concentration of the spray liquor is chosen so that the particular amount of active compound desired is applied in 1000 liters of water per hectare.
as §4
(§8) The figure denote: • 0%=no effect (like untreated control) • 100%=total destruction

A further data set has as its system Sinapis. As to the kind of experiment: Post-emergence test/greenhouse. Particulars: greenhouse, 250 g of ai/ha, rated after three weeks. It is filed as in vivo. On the procedure: as §1, §2, §3, §4, §5
Data set [3] deals with Amaranthus. Description: Post-emergence test/greenhouse. The format is in vivo. Particulars: greenhouse, rated after three weeks. On the procedure: as §1, §2, §3, §4, §5
In a further data set the test system is Xanthium. As to the kind of experiment: Post-emergence test/greenhouse. Particulars: greenhouse, 250 g of ai/ha, rated after three weeks. It is filed as in vivo. Here is the method:
as §1, §2, §3, §4, §5

In data set [4] the test system is Alopecurus. Description: Post-emergence test/greenhouse. Particulars: greenhouse, rated after three weeks. It is filed as in vivo. Here is the method: as §1, §2, §3, §4, §5
The test system of data set [5] is Abutilon. Description: Post-emergence test/greenhouse. Particulars: greenhouse, rated after three weeks. It is filed as in vivo. Here is the method:
as §1, §2, §3, §4, §5

The subject of the next data set is Avenafatua. As to the kind of experiment: Post-emergence test/greenhouse. It is filed as in vivo. Particulars: greenhouse, 250 g of ai/ha, rated after three weeks. On the procedure:
as §1, §2, §3, §4, §5

Data set [6] relates to Setaria. Description: Post-emergence test/greenhouse. It is filed as in vivo. Particulars: greenhouse, 250 g of ai/ha, rated after three weeks. On the procedure: as §1, §2, §3, §4, §5
The subject of another data set is Veronica. As to the kind of experiment: Pre-emergence test/greenhouse. It is filed as in vivo. Particulars: greenhouse, 60 g of ai/ha, rated after three weeks. Here is the method: as §1, §6, §7, §4, §8
For a further data set, the system named is Bromus. Description: Pre-emergence test/greenhouse. The format is in vivo. Particulars: greenhouse, 60 g of ai/ha, rated after three weeks. On the procedure: as §1, §6, §7, §4, §8
Data set [7] relates to Stellaria. Description: Pre-emergence test/greenhouse. It is filed as in vivo. Particulars: greenhouse, 60 g of ai/ha, rated after three weeks. Here is the method:
as §1, §6, §7, §4, §8

The test system of the next data set is Cyperus. Description: Pre-emergence test/greenhouse. Particulars: greenhouse, 60 g of ai/ha, rated after three weeks. The format is in vivo. On the procedure:
as §1, §6, §7, §4, §8

Another data set concerns Viola. As to the kind of experiment: Pre-emergence test/greenhouse. The format is in vivo. Particulars: greenhouse, 60 g of ai/ha, rated after three weeks. On the procedure: as §1, §6, §7, §4, §8
Data set [8] has as its system Abutilon. As to the kind of experiment: Pre-emergence test/greenhouse. It is filed as in vivo. Particulars: greenhouse, 60 g of ai/ha, rated after three weeks. On the procedure:
as §1, §6, §7, §4, §8

Another data set concerns Maize. Description: Pre-emergence test/greenhouse. Particulars: greenhouse, 60 g of ai/ha, rated after three weeks. It is filed as in vivo. Here is the method:
as §1, §6, §7, §4, §8

For data set [9], the system named is Setaria. Description: Pre-emergence test/greenhouse. It is filed as in vivo. Particulars: greenhouse, 60 g of ai/ha, rated after three weeks. Here is the method: as §1, §6, §7, §4, §8
Another data set deals with Chenopodium. Description: Pre-emergence test/greenhouse. The format is in vivo. Particulars: greenhouse, 60 g of ai/ha, rated after three weeks. Here is the method:
as §1, §6, §7, §4, §8

Data set [10] relates to Matricaria. Description: Pre-emergence test/greenhouse. Particulars: greenhouse, 60 g of ai/ha, rated after three weeks. It is filed as in vivo. On the procedure: as §1, §6, §7, §4, §8
In data set [11] the test system is Alopecurus. As to the kind of experiment: Pre-emergence test/greenhouse. It is filed as in vivo. Particulars: greenhouse, 60 g of ai/ha, rated after three weeks. On the procedure: as §1, §6, §7, §4, §8
Data set [12] has as its system Solanum. Description: Post-emergence test/greenhouse. The format is in vivo. Particulars: greenhouse, 15 g of ai/ha, rated after three weeks. Here is the method:
as §1, §2, §3, §4, §5

The test system of data set [13] is Stellaria. Description: Post-emergence test/greenhouse. The format is in vivo. Particulars: greenhouse, 15 g of ai/ha, rated after three weeks. Here is the method:
as §1, §2, §3, §4, §5

Data set [14] has as its system Matricaria. As to the kind of experiment: Post-emergence test/greenhouse. It is filed as in vivo. Particulars: greenhouse, 15 g of ai/ha, rated after three weeks. On the procedure: as §1, §2, §3, §4, §5
The next data set relates to Echinochloa. Description: Post-emergence test/greenhouse. The format is in vivo. Particulars: greenhouse, 15 g of ai/ha, rated after three weeks. On the procedure: as §1, §2, §3, §4, §5
For data set [15], the system named is Wheat. Description: Post-emergence test/greenhouse. It is filed as in vivo. Particulars: greenhouse, 15 g of ai/ha, rated after three weeks. Here is the method: as §1, §2, §3, §4, §5
Data set [16] has as its system Solanum. Description: Pre-emergence test/greenhouse. Particulars: greenhouse, 60 g of ai/ha, rated after three weeks. The format is in vivo. On the procedure: as §1, §6, §7, §4, §8
The subject of data set [17] is Amaranthus. As to the kind of experiment: Pre-emergence test/greenhouse. Particulars: greenhouse, 60 g of ai/ha, rated after three weeks. It is filed as in vivo. Here is the method: as §1, §6, §7, §4, §8
For another data set, the system named is Barley. Description: Pre-emergence test/greenhouse. It is filed as in vivo. Particulars: greenhouse, 60 g of ai/ha, rated after three weeks. Here is the method:
as §1, §6, §7, §4, §8

For data set [18], the system named is Wheat. Description: Pre-emergence test/greenhouse. Particulars: greenhouse, 60 g of ai/ha, rated after three weeks. The format is in vivo. Here is the method:
as §1, §6, §7, §4, §8

The term melting point denotes the temperature of the solid-liquid transition.

Take `COC(=O)c1csc(C)c1S(=O)(=O)NC(=O)n1nc(SC)n(C)c1=O` [Example 12]: the activity against weeds result in the data set with weeds [1] and in the data set on weeds [2] was “very strong activity” in each case. The “degree of damage to the plants, Sinapis” value in the data set on Sinapis came to 100%. The “degree of damage to the plants, Amaranthus” value (“degree of damage … Amaranthus” for short) in the data set on Amaranthus [3] (250 g of ai/ha) worked out at 100%. The “degree of damage to the plants, Xanthium” value in the data set with Xanthium was determined as 100%. In addition, the “degree of damage to the plants, Alopecurus” value (“degree of damage … Alopecurus” below) in the data set on Alopecurus [4] (250 g of ai/ha) was found to be 95%. Moreover, the “degree of damage to the plants, Abutilon” value with Abutilon [5] (250 g of ai/ha) and with Abutilon [8] was 100% in each case. The “degree of damage to the plants, Avenafatua” value with Avenafatua came out at 100%. In addition, the “degree of damage to the plants, Setaria” value with Setaria [6] and in the data set on Setaria [9] was 100% throughout. Besides, the “degree of damage to the plants, Veronica” value in the data set with Veronica stood at 100%. Moreover, the “degree of damage to the plants, Bromus” value in the data set with Bromus worked out at 100%. In addition, the “degree of damage to the plants, Stellaria” value (“degree of damage … Stellaria” for short) in the data set with Stellaria [7] is listed as 100%. Also, in the data set with Cyperus, the “degree of damage to the plants, Cyperus” value came to 100%. Moreover, in the data set with Viola, the “degree of damage to the plants, Viola” value came out at 100%. Besides, the “degree of damage to the plants, Maize” value in the data set on Maize turned out to be 10%.

Take `CCOc1nn(C(=O)NS(=O)(=O)c2c(C(=O)OC)csc2C)c(=O)n1C` [Example 1, methyl 4-[[[(3-ethoxy-4,5-dihydro-4-methyl-5-oxo-1H-1,2,4-triazol-1-yl)-carbonyl]-amino]-sulphonyl]-5-methyl-thiophene-3-carboxylate]: the melting point came out at 163 °C. In the data set on weeds [1], the activity against weeds result is “very strong activity”. Besides, the activity against weeds result with weeds [2] is listed as “very strong activity”. In the data set with Sinapis, the “degree of damage to the plants, Sinapis” value is 100%. Also, the “degree of damage … Amaranthus” value with Amaranthus [3] (250 g of ai/ha) was 100%. Further, the “degree of damage to the plants, Xanthium” value with Xanthium is 100%. The “degree of damage … Alopecurus” value in the data set with Alopecurus [4] (250 g of ai/ha) is given as 100%. The “degree of damage to the plants, Abutilon” value in the data set with Abutilon [5] (250 g of ai/ha) was 100%. Also, in the data set on Avenafatua, the “degree of damage to the plants, Avenafatua” value worked out at 100%. Also, the “degree of damage to the plants, Setaria” value in the data set on Setaria [6] was found to be 100%. The “degree of damage to the plants, Veronica” value in the data set on Veronica stood at 100%. Besides, in the data set on Bromus, the “degree of damage to the plants, Bromus” value is recorded as 90%. Besides, the “degree of damage … Stellaria” value in the data set with Stellaria [7] was 95%. In the data set on Viola, the “degree of damage to the plants, Viola” value came to 100%. Also, in the data set on Chenopodium, the “degree of damage to the plants, Chenopodium” value came to 100%. The “degree of damage to the plants, Matricaria” value in the data set with Matricaria [10] worked out at 95%. Moreover, in the data set on Alopecurus [11], the “degree of damage … Alopecurus” value was 90%. For the same compound, the “degree of damage to the plants, Setaria” value with Setaria [9] amounted to 90%.

With `CCCOc1nn(C(=O)NS(=O)(=O)c2c(C(=O)OC)csc2C)c(=O)n1C` [Example 3], the activity against weeds result in the data set on weeds [1] and in the data set with weeds [2] was “very strong activity” each time. The “degree of damage to the plants, Solanum” value was found to be 95% in the data set on Solanum [12] and 90% with Solanum [16]. Further, the “degree of damage … Stellaria” value with Stellaria [13] was 100%; in the data set with Stellaria [7], 95%. The “degree of damage … Amaranthus” value with Amaranthus [3] (15 g of ai/ha) and in the data set with Amaranthus [17] was 95% throughout. In addition, in the data set with Matricaria [14], the “degree of damage to the plants, Matricaria” value was determined as 90%. In addition, the “degree of damage to the plants, Echinochloa” value with Echinochloa is 60%. The “degree of damage to the plants, Wheat” value in the data set on Wheat [15] and with Wheat [18] was 0% each time. Besides, the “degree of damage … Alopecurus” value in the data set on Alopecurus [4] (15 g of ai/ha) is given as 70%; with Alopecurus [11] it was 80%. The “degree of damage to the plants, Abutilon” value in the data set on Abutilon [5] (15 g of ai/ha) was found to be 95%. Further, in the data set with Barley, the “degree of damage to the plants, Barley” value is 0%.

The values above are taken from US7642221B2, “Substituted thien-3-yl-sulphonylamino(thio)carbonyl-triazoline(ethi)ones” (Bayer Aktiengesellschaft, priority 1999, dated 2010).
